The values that follow are results of earlier work, collected in patent US20150005281A1, “PYRIMIDINE-2,4-DIAMINE DERIVATIVES AS KINASE INHIBITORS” (Cellzome Limited, priority 2011, published 2015).

SMILES strings stand for the structures.

The conditions of data set [1]: Cetkovic-Cvrlje and Ucken, 2004; cited from earlier work.
The conditions of data set [2]: NOD mouse; cited from earlier work.

Turning to `COc1cc2ncnc(Nc3ccc(O)cc3)c2cc1OC` [JANEX-1], the “severity of GVHD” value in data set [1] is recorded as “attenuate the severity of GVHD”. The “spontaneous autoimmune diabetes development” value in data set [2] was “prevent spontaneous autoimmune diabetes development”.
